US20260165956A1, “IN VIVO TARGETING OF THERAPEUTIC MOLECULES TO THE RETINA VIA THE OPTICAL SYSTEM OF THE EYE” (SEMMELWEIS EGYETEM, priority 2022, published 2026)
Where “and” joins values, the source holds several entries; their conditions need not be identical. Identical values can stand only once. Entries after “also recorded” stand apart in the source; their conditions may differ. Like-named read-outs stand apart in the source and are kept apart here.

What was measured:
[1] = target: T1, VEGFR2 (Homo sapiens, UniProt P35968); experiment: VEGFR2/NFAT Reporter HEK293 luciferase assay of VEGF signaling; type: cell-based; details: VEGFR2-HEK cells; for IC50: 20 ng/ml VEGF165; for Dark/Light: ratio of IC50 dark to IC50 light
T1 construct: host or cells: HEK293 (VEGFR2/NFAT Reporter recombinant cell line)
Procedure: We have cultured the cells and conducted the measurements according to the manufacturer's instructions.
On the day preceding the measurement, 40 000 recombinant HEK cells were seeded into each well of a 96 well plate in a way that the experiments could be conducted in triplicates. […] For the conditions requiring irradiation, the plate was placed under a cold white LED light source within the incubator (37° C., 5% CO2) for the first 10 minutes of the 1-hour-long incubation with the inhibitors to imitate day-light, while the other plate was kept in the dark (also at 37° C., 5% CO2). Following the pre-incubation with inhibitors we treated the cells for 4 hours with VEGF without removing the inhibitors. For this purpose we used 20 ng/ml of commercially available human VEGF165 (Sf9 derived, from BPS BioScience Inc., Cat. No.: 91001-1) added directly into the cell-culture medium.
The IC50 values were calculated using the GraphPad Prism software.

[2] = tested on: human retinal microvascular endothelial cells (HRMEC); experiment: tubulogenesis (in vitro angiogenesis) assay, number of meshes; type: cell-based; details: for IC50 / Dark/Light: HRMEC tubulogenesis; for Dark/Light: ratio of IC50 dark to IC50 light
From the text: These cells preserve their endothelial nature, and when cultured on an appropriate extracellular matrix, they spontaneously form a network that corresponds to a network of capillaries. Images of such networks taken with a microscope can be quantified, and several parameters (such as the number of segments, number of closed loops, number of junction points) of the network can be quantified and used as a parameter describing the angiogenesis in vitro [Staton et al., 2009].
The inventors have applied their proprietary azidated inhibitors described in the present patent in an ascending series of concentrations. For all the said azidated inhibitors, the in vitro angiogenesis experiments were carried out both in complete darkness and in defined illumination conditions. The number of closed loops (number of meshes) was identified using an image recognition algorithm, and an IC50 curve was fitted onto the number of meshes plotted against substance concentration. […] These experiments thus provided further proof, that light increases the inhibitory potential of the novel azidated compounds described in the present patent.
In vitro angiogenesis (hereinafter referred to as “tubulogenesis”) mimicks several features of angiogenetic processes observed in vivo in vertebrate animals [Staton et al., 2009] and is based on the VEGF-dependent self-organizing capacity of endothelial cells via which tube-like structures emerge that share many properties with in vivo observed blood vessels. Therefore, the inhibitory potential of the newly synthetized molecules of the present invention was also assessed in tubulogenesis assay using human retinal microvascular endothelial cells (HRMEC) derived from post mortem human donors. When seeded onto a collagen and laminin containing matrix, HRMEC spontaneously form a two-dimensional blood-vessel-like network displaying several quantifiable features that can be used to measure angiogenic potential [Staton et al., 2009]. The newly synthetized, PMO-containing VEGFR inhibitors were added to the culture medium in increasing concentrations to test whether they can inhibit the spontaneous formation of the network from HRMEC. The increasing concentrations allowed the inventors to calculate the IC50 values for each inhibitor molecule. The results of these experiments (table 2.) have shown that the new, PMO-containing azidated inhibitors were capable of inhibiting the tubulogenesis. Furthermore, in the presence of light, the inhibition was stronger than in the dark, providing evidence for the photoactivation and the concomitant covalent binding of the azidated inhibitors to their target receptors.
To test the inhibitory effect of the compounds with light and without light on tubulogenesis [Staton et al., 2009], we have used human retinal microvascular endothelial cells (HRMEC) from Cell Systems (Kirkland, WA 98033, cat. N^o: ACBRI 181). VEGF165 (Invitrogen) was only used as a positive control in these experiments, otherwise tubulogenesis relied on endogenous VEGF produced by the culture.
Assays were performed in a 96-well cell culture plate (Biologix). The basement membrane matrix Geltrex (Invitrogen) was thawed on ice overnight before use. 50 μl Geltrex was added to each well with a chilled pipette, then the plate was centrifuged at 2000 rpm for 10 min at 4° C. Subsequently the matrix was let solidify in a humidified incubator at 37° C. for at least 30 minutes. Before seeding, HRMEC cells were treated with compounds (0.1 nM-10 μM) in EBM-2 medium (Lonza) in the dark. After 5 minutes, 100 μl of suspension of treated cells was seeded into each Geltrex-coated well of the plate at a density of 10^3 cells/well and then exposed to light treatment (cold white LED light) for 10 min at 37° C. and 5% CO2 or kept in the dark (control plate) in the incubator during light treatment. Subsequently both the irradiated and the control plates were left in the incubator for 12 hours so that the tubulogenesis can proceed. […]

[3] = tested on: neovascular AMD; details: oral, phase I, patients; cited from earlier work
[4] = tested on: neovascular AMD; details: oral, phase II, trial prematurely stopped; cited from earlier work
[5] = cold white LED light for the first 10 min of 1 h pre-incubation, read-out: IC50 Light
[6] = kept in the dark, read-out: IC50 Dark
[7] = Homo sapiens, HRMEC, 10 min, cold white LED light 10 min, no Ko-143, read-out: IC50 Light
[8] = Homo sapiens, HRMEC, dark, no Ko-143, read-out: IC50 Dark

T1 sequence (P35968 20-1356): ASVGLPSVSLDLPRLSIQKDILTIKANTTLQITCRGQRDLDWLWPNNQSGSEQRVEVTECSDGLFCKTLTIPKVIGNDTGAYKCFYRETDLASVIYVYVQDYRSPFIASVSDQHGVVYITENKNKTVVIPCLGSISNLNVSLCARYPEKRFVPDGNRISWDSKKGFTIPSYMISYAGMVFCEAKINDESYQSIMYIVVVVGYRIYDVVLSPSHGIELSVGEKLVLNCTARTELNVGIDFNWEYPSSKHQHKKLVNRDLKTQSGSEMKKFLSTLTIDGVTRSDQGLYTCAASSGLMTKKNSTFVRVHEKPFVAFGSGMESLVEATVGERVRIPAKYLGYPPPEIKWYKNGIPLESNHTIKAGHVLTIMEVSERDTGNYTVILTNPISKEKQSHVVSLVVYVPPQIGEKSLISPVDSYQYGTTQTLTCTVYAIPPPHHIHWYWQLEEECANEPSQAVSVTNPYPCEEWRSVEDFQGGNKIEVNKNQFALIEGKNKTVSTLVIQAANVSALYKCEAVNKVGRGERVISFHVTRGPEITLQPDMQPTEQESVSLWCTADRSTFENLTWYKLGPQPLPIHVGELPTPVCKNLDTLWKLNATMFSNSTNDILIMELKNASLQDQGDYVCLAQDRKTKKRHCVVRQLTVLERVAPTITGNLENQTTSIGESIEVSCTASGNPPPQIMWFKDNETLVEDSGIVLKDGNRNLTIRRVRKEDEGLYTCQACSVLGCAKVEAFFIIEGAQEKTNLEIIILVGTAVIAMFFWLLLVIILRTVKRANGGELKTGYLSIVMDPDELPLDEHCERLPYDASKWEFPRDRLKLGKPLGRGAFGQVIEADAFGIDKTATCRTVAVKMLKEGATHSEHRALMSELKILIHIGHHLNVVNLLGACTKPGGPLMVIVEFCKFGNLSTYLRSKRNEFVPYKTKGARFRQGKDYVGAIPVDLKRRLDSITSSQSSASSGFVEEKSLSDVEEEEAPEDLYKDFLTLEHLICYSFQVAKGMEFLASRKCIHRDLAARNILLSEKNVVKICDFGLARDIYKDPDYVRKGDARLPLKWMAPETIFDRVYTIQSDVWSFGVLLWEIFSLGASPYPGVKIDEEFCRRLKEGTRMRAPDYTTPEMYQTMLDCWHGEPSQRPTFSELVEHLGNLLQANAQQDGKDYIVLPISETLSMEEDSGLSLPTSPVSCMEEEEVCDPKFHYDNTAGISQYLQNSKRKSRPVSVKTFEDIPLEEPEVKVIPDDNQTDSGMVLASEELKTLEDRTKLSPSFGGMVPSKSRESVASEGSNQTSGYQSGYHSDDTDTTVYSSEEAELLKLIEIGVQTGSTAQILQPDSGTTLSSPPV

SMILES	IC50 [1, 5]	IC50 [1, 6]	Dark/Light [1]	IC50 [2, 7]	IC50 [2, 8]	IC50 ([2]; cold white LED light 10 min, 500 nM of Ko-143 in the medium, read-out: IC50 Light)	IC50 ([2]; Homo sapiens, HRMEC, 10 min, cold white LED light 10 min, 500 nM of Ko-143 in the medium, read-out: IC50 Light)	Dark/Light ([2]; no Ko-143)	Dark/Light ([2]; 500 nM of Ko-143)	effect on tubulogenesis ([2]; result in words)	efficacy against neovascular AMD [3]	adverse effects [4]
Cc1[nH]c(/C=C2\C(=O)Nc3cc(Cl)c(N=[N+]=[N-])cc32)c(C)c1C(=O)N[C@H]1CCN(C(=O)N(C)C)C1 [5-defluoro-5-azido-6-chloro-vorolanib]	0.921 nM	57.8 nM	62.80			173 nM	135 nM		3.97			
CCN(CC)CCNC(=O)c1c(C)[nH]c(/C=C2\C(=O)Nc3ccc(N=[N+]=[N-])cc32)c1C [5-defluoro-5-azido-sunitinib (1), 5-defluoro-5-azido-sunitinib]	36.8 nM	263 nM	7.136	951 nM	3540 nM			3.72				
CCN(CC)CCNC(=O)c1c(C)[nH]c(/C=C2\C(=O)Nc3cc(N=[N+]=[N-])ccc32)c1C [5-defluoro-6-azido-sunitinib (2), 5-defluoro-6-azido-sunitinib]	9.3 nM	93.7 nM	10.074	432 nM	1090 nM			2.52				
Cc1[nH]c(/C=C2\C(=O)Nc3cc(N=[N+]=[N-])ccc32)c(C)c1C(=O)N[C@H]1CCN(C(=O)N(C)C)C1 [5-defluoro-6-azido-vorolanib (7), 5-defluoro-6-azido-vorolanib]	10.1 nM	53.4 nM	5.29									
COc1ccc2c3c([nH]c2c1)[C@H](CC(C)C)N1C(=O)[C@H](CCC(=O)OC(C)(C)C)NC(=O)[C@@H]1C3 [Ko-143, reference compound]										no effect		
Cc1[nH]c(/C=C2\C(=O)Nc3ccc(F)cc32)c(C)c1C(=O)N[C@H]1CCN(C(=O)N(C)C)C1 [vorolanib]											effective	hepatobiliary and gastrointestinal adverse effects; also recorded: intolerable levels of side effects

Further lines, with some results ahead:

IC50 [1, 5]	IC50 [1, 6]	Dark/Light [1]	IC50 [2, 7]	IC50 [2, 8]	IC50 ([2]; cold white LED light 10 min, 500 nM of Ko-143 in the medium, read-out: IC50 Light)	IC50 ([2]; Homo sapiens, HRMEC, 10 min, cold white LED light 10 min, 500 nM of Ko-143 in the medium, read-out: IC50 Light)	SMILES	Dark/Light ([2]; no Ko-143)	Dark/Light ([2]; 500 nM of Ko-143)	effect on tubulogenesis ([2]; result in words)	efficacy against neovascular AMD [3]	adverse effects [4]
3.5 nM	60.4 nM and 60.7 nM	17.25					CCN(CC)CCNC(=O)c1c(C)[nH]c(/C=C2\C(=O)Nc3cc(Br)c(N=[N+]=[N-])cc32)c1C [5-defluoro-5-azido-6-bromo-sunitinib (6), 5-defluoro-5-azido-6-bromo-sunitinib]					
2.23 nM	40.4 nM	18.12	168 nM	655 nM			CCN(CC)CCNC(=O)c1c(C)[nH]c(/C=C2\C(=O)Nc3cc(Cl)c(N=[N+]=[N-])cc32)c1C [5-defluoro-5-azido-6-chloro-sunitinib]	3.48				
8.86 nM	69 nM	7.79					CCN(CC)CCNC(=O)c1c(C)[nH]c(/C=C2\C(=O)Nc3cc(F)c(N=[N+]=[N-])cc32)c1C [5-defluoro-5-azido-6-fluoro-sunitinib]					
11.7 nM	53.2 nM	4.57	87 nM	228 nM			CCN(CC)CCNC(=O)c1c(C)[nH]c(/C=C2\C(=O)Nc3cc(N=[N+]=[N-])c(F)cc32)c1C [6-azido-sunitinib (3), 6-azido-sunitinib]	2.62				
